Test [1] in a line: Assay for measurement of free calcium ions (calcium ion selective electrode). The test is classed as physicochemical. Particulars: pH 8.0, 49 mM EPPS buffer, 80 mM potassium chloride, 21 °C; for chelator concentrations necessary to reduce the concentration of free calcium ions from 2.0 mM to 0.10 mM: by interpolation. Here is the method:
The following assay may be used for the measurement of free calcium ions in solution, and thus for the determination of chelating agents (chelants) ability to reduce the concentration of free calcium ions (Ca2+) from e.g. 2.0 mM to 0.10 mM at pH 8.
Various amounts of chelants are added to a solution of 2.0 mM Ca2+ and the free Ca2+ concentration is determined by using a Calcium Ion Selective Electrode at fixed pH and temperature. The concentration of chelant necessary to reduce the concentration of free calcium from 2.0 mM to 0.10 mM can be determined from a plot of the free calcium concentration measured versus the concentration of chelant. In the present assay the concentration of chelant necessary to reduce the concentration of free calcium from 2.0 mM to 0.10 mM is measured at pH 8, at 21°C, in potassium chloride and 49 mM EPPS.
Electrolyte solution: 4 M potassium chloride in ultrapure water (Milli-Q water). pH 8 buffer: 50 mM EPPS (4-(2-Hydroxyethyl)piperazine-1-propanesulfonic acid) adjusted to pH 8.0 using minimum amounts of 1 N sodium hydroxide. Calcium stock solution: 25 mM Ca2+ in pH 8 buffer, made from CaCl2.2H2O. Chelant stock solution: 15 mM chelant (on a 100 % dry chelator basis) in pH 8 buffer, re-adjusted to pH 8.0 using minimum amounts of 1 M NaOH or 1 M HCl.
Calcium Ion Selective Electrode from Thermo Scientific (cat. No. 9720BNWP) calibrated against a Calcium chloride standard solution. The electrode is calibrated as described by the guidelines following the electrode.
A series of vials are prepared, each containing 4 mL of the calcium stock solution (final concentration 2.0 mM), 1 mL electrolyte solution (final concentration 80 mM potassium chloride), chelant stock solution in various amounts (0 - 45 mL) and using the pH 8 buffer for adjusting the total volume to 50 mL. The final concentration of EPPS in the assay is 49 mM. After mixing, the concentration of free Ca2+ is measured by the calcium electrode. The free calcium concentration should be determined at a sufficient number of different chelant concentrations for each chelant tested, ensuring that the data set covers the entire range from 2.0 mM free calcium ions to a value below 0.10 mM or the final chelant concentration in the assay is higher than 10.0 mM. A suitable number of data points are 8 or more. The chelant concentration required to lower the initial 2.0 mM free calcium ions to 0.10 mM is obtained from a plot of the measured free calcium ion concentration versus chelator concentration by interpolation.
The solutions are equilibrated to the desired temperature, which in the present assay is 21°C.
Chelating agents (chelants) may be ranked by their ability to reduce the concentration of free calcium ions (Ca2+) from 2.0 mM to 0.10 mM at pH 8 developed from a method described by M.K.Nagarajan et al., JAOCS, Vol. 61, no. 9 (September 1984), pp. 1475-1478. The assay described above under "Materials and Methods" for measuring of free calcium ions was used. Accordingly, the concentration of chelant necessary to reduce the water hardness from 2.0 mM to 0.10 mM was determined as described above. The experiment was carried out with the pH 8 buffer at 21 °C. Table 12.1: Concentration of free Ca2+ determined in a mixture of 2.0 mM Ca2+ and various amounts of chelating agent at pH 8.
A number of chelants were characterized using this assay, and the chelator concentrations necessary to reduce the concentration of free calcium ions from 2.0 mM to 0.10 mM at pH 8.0 in 49 mM EPPS buffer and 80 mM potassium chloride are shown below in Table 12.2. This table can thus also be used for comparing the capabilities of the chelating agents for reducing the concentration of free calcium ions. Table 12.2

Test [2] can be described thus: Determination of log K by ITC (isothermal titration calorimetry). Particulars: binding constant of chelator and calcium ions, pH 10. An excerpt: Chelating agents can also be characterized by the binding constant of the chelating agent (chelator) and calcium ions. This constant can be determined by ITC (isothermal titration calorimetry) as described by AD Nielsen, CC Fuglsang and […], Analytical Biochemistry Vol. 314 (2003) page 227-234 and T Wiseman, S Williston, JF Brandts and L-N Lin, Analytical Biochemistry Vol. 179 (1989) page 131-137. All glassware and plastic bottles used are washed with a 1 % (w/w) EDTA solution and subsequently rinsed thoroughly in Chelex 100 treated ultrapure water (Milli-Q water). Solutions are stored in plastic bottles and kept at 5°C until use. […] • 125 μM chelant in 20 mM HEPES, pH 8 or 125 μM chelant in 20 mM glycine, pH 10 • 4 mM CaCl2 in 20 mM HEPES, pH 8 or 4 mM CaCl2 in 20 mM glycine, pH 10 • Ultrapure water (Milli-Q water) […] All solutions are degassed by stirring under vacuum before the experiments. INSTRUMENT: MCS-ITC (MicroCal Inc., Northampton, MA, USA) The reference cell is filled with ultrapure water (Milli-Q water). The sample cell is filled with the chelant solution at the selected pH and the syringe is filled with the calcium solution at the selected pH. The solutions are equilibrated to the desired temperature, e.g. 19°C. […] The obtained signals from the ITC are then integrated using the Origin software supplied by MicroCal Inc. To obtain the binding isotherms, regression routines are made using the same software package. […] Presently preferred is the "OneSites" model which gives the best fit for most of the commonly used chelating agents, i.e. the residuals are evenly distributed around zero. […] Alternatively, the chelating agents can be characterized by the binding constant of the chelating agent (chelator) and calcium ions. This constant can be determined by ITC (isothermal titration calorimetry) as described by AD Nielsen, CC Fuglsang and […], Analytical Biochemistry Vol. 314 (2003) page 227-234 and T Wiseman, S Williston, JF Brandts and L-N Lin, Analytical Biochemistry Vol. 179 (1989) page 131-137. The procedure for the determination of log K is described in detail above under "Materials and Methods". Using this procedure for determination of log K, the following log K values for several chelating agents were determined at pH 10 (Table 12.3). Table 12.3

`O=C(O)CC(O)(CC(=O)O)C(=O)O` [Citrate]: in test [1], the “chelator concentration to reduce free calcium ions from 2.0 mM to 0.10 mM, Relative to citrate” value was determined as 1.00 and the “chelator concentrations necessary to reduce the concentration of free calcium ions from 2.0 mM to 0.10 mM” value is 8.36 mM. Moreover, the “Log K” value in test [2] was 3.
Consider `O=P(O)(O)CN(CCN(CP(=O)(O)O)CP(=O)(O)O)CCN(CP(=O)(O)O)CP(=O)(O)O` [DTMPA, diethylenetriaminepenta(methylene-phosphonic acid)], for which, in test [1], the “chelator concentration to reduce free calcium ions from 2.0 mM to 0.10 mM, Relative to citrate” value worked out at 0.25 and the “chelator concentrations necessary to reduce the concentration of free calcium ions from 2.0 mM to 0.10 mM” value was determined as 1.17 mM.
With `O=C(O)CN(CCN(CC(=O)O)CC(=O)O)CCN(CC(=O)O)CC(=O)O` [DTPA, diethylenetriaminepentaacetic acid], in test [1], the “chelator concentration to reduce free calcium ions from 2.0 mM to 0.10 mM, Relative to citrate” value came to 0.24 and the “chelator concentrations necessary to reduce the concentration of free calcium ions from 2.0 mM to 0.10 mM” value amounted to 1.87 mM. Also, the “Log K” value in test [2] is recorded as 7.
As to `O=C(O)CN(CCN(CC(=O)O)CC(=O)O)CC(=O)O` [EDTA, ethylene diamine tetraacetate], in test [1], the “chelator concentration to reduce free calcium ions from 2.0 mM to 0.10 mM, Relative to citrate” value is 0.21 and the “chelator concentrations necessary to reduce the concentration of free calcium ions from 2.0 mM to 0.10 mM” value is given as 1.90 mM. For the same compound, the “Log K” value in test [2] worked out at 8.
The corresponding values for `O=C(O)CN(CCOCCOCCN(CC(=O)O)CC(=O)O)CC(=O)O` [EGTA, ethylene glycol tetraacetic acid] are 0.33, 2.60 mM and 9.
The corresponding values for `CC(O)(P(=O)(O)O)P(=O)(O)O` [HEDP, 1-Hydroxyethylidene-1,1-Diphosphonic Acid] are 0.20, 1.60 mM and 6.
Regarding `C[C@@H](C(=O)O)N(CC(=O)O)CC(=O)O` [MGDA, methylglycinediacetic acid or N,N'-bis(carboxymethyl)alanine], in test [1], the “chelator concentration to reduce free calcium ions from 2.0 mM to 0.10 mM, Relative to citrate” value turned out to be 0.33 and the “chelator concentrations necessary to reduce the concentration of free calcium ions from 2.0 mM to 0.10 mM” value is listed as 2.56 mM. Further, the “Log K” value in test [2] is on record as 2.56.

The values above are taken from EP3122861B1, “LIQUID DETERGENT COMPOSITIONS COMPRISING AN ALPHA-AMYLASE” (priority 2014, dated 2015).
